A short description of data set [1]: in vitro. Particulars: isolated enzyme proteinase k, pH 7.4. The class given is in vitro ADME. As for the experimental part:
(§1) Stocks of 20 μM peptide in 200 μL total volume (10 mM Tris-base, 10 mM NaCl, pH 7.4) were supplemented with 5 μM CaCl2) and 30 uL removed for the untreated T0 sample. Proteinase K (ProtK, Bioshop) was then added to a final concentration of 100 μg/mL. Samples were incubated at 37° C. and 30 μL removed after each time point and protease activity blocked by the addition of 10 mM PMSF (200 mM stock dissolved in isopropanol). Protease inactivated samples were frozen at −20° C. until further use. Digestions were repeated three times. Frozen samples were supplemented with 8 μL sample loading buffer (4× NuPAGE, ThermoFisher Scientific), boiled ([…]) for 10 minutes, and centrifuged (12 000 rpm, 10 min) prior to loading the gel (12% NuPAGE Bis-Tris (ThermoFisher Scientific) with MES running buffer). Gels were run at 200 V for […] and stained using Coomassie Brilliant Blue dye. Densitometry of bands was determined using ImageJ software (40) with back ground subtraction. All samples were normalized to their respective untreated sample (T0).

For data set [2], the target named is T1, Proteinase K (ProtK) (Parengyodontium album, UniProt P06873).
T1 construct: purchased Bioshop
T1 sequence (P06873 106-384): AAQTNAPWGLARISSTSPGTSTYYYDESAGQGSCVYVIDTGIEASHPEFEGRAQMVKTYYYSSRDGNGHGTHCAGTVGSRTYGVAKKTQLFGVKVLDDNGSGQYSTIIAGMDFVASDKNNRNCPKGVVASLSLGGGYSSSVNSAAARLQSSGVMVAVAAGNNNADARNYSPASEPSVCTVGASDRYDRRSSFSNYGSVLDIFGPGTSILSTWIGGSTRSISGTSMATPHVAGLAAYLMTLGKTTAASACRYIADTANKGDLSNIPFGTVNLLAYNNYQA
The data set is described as follows: in vitro. The class given is in vitro ADME. Here is the method: as §1

Data set [3] addresses T2, GLP2R (Homo sapiens, UniProt O95838).
T2 construct: expressed in transfected cells; host or cells: HEK293
T2 sequence (O95838 1-553): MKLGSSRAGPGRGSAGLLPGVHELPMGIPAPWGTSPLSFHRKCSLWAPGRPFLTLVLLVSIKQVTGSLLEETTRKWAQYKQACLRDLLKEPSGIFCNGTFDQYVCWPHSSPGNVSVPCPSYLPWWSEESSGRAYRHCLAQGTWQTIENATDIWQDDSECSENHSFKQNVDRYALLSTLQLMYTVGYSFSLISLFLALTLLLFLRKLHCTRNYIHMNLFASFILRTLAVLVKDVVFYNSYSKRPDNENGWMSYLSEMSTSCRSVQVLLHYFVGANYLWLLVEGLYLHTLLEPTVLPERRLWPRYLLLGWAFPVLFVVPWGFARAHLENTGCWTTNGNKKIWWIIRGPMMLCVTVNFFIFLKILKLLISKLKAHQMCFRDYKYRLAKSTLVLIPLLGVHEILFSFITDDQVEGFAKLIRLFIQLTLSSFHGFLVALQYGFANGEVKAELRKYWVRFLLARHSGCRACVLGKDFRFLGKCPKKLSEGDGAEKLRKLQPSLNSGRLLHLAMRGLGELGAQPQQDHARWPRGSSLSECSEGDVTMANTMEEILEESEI
The data set is described as follows: CRE-luciferase reporter assay in HEK293 cells stably expressing GLP2R. The class given is cell-based. Here is the method:
This activates protein kinase A (PKA) to phosphorylate and activate cAMP response element-binding protein (CREB). […] All of the (L)-GLP-2 is degraded in about 1 hr, while more than 90% of the (D)-analog is still detectable at 6 hours.
FIG. 14 is a series of charts and experiments showing the activity and protease degradation of (L)- and (D)-GLP2 polypeptides. (A) HEK293 cells stably expressing GLP2R and CRE-luciferase were stimulated with different concentrations of (L)- and (D)-GLP2 peptides. Luciferase activity was measured. The experiments were performed in triplicate. (B) Sample gel images of (L) and (D)-GLP-2 peptides treated with Proteinase K (ProtK) over 5 hours. Gels were stained with Coomassie Brilliant Blue dye and band densitometry calculated using ImageJ (40) with background subtraction. (C) Quantification of remaining peptide post ProtK treatment in 60 min intervals. Intensities of peptide bands were normalized to the intensity of the untreated peptide (T0) and converted to a percentage relative to T0. […] Error bars are reporting standard error. Data represent the average of 3 independent experiments.

Data set [4] has as its target T3, RLN receptor (RXFP1) (Homo sapiens, UniProt Q9HBX9).
T3 construct: expressed in transfected cells; host or cells: HEK293
T3 sequence (Q9HBX9 1-757): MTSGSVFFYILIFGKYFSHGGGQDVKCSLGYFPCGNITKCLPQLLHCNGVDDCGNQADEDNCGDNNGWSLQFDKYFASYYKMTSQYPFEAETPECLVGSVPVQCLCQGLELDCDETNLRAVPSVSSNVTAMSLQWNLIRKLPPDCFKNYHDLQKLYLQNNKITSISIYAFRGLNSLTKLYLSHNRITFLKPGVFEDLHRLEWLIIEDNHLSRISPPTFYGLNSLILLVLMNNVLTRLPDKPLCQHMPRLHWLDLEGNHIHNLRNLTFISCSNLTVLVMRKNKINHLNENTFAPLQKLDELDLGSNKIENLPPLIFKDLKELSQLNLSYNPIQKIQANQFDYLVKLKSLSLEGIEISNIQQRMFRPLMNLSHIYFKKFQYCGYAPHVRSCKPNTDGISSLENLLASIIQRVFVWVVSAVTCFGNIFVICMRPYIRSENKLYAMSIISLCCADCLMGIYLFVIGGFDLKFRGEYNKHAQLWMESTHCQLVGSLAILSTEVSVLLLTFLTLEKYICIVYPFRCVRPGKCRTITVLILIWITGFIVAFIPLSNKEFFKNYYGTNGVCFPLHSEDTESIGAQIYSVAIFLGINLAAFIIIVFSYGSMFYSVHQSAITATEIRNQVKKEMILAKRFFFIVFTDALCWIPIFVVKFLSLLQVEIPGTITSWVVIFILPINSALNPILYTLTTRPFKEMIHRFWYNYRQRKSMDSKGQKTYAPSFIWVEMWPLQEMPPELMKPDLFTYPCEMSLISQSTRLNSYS
The data set is described as follows: CRE-luciferase reporter assay in HEK293 cells stably expressing RXFP1. The class given is cell-based. As for the experimental part:
This activates protein kinase A (PKA) to phosphorylate and activate cAMP response element-binding protein (CREB). […] All of the (L)-RLN was degraded in about 1 hr, while about 90% of the (D)-analog was still detectable at 6 hours.
FIG. 15 is a series of charts and experiments showing the activity and protease degradation of (D)-RLN_1 (non-mutated) and (D)-RLN_2 (mutated) polypeptides. (A) HEK293 cells stably expressing RXFP1 and CRE-luciferase were stimulated with different concentrations of (D)-RLN_1 and (D)-RLN_2 peptides. Luciferase activity was measured. The experiments were performed in triplicate. (B) Sample gel images of (L) and (D)-RLN peptides treated with Proteinase K (ProtK) over 5 hours. Gels were stained with Coomassie Brilliant Blue dye and band densitometry calculated using ImageJ (40) with background subtraction. (C) Quantification of remaining peptide post ProtK treatment in 60 min intervals. Intensities of peptide bands were normalized to the intensity of the untreated peptide (T0) and converted to a percentage relative to T0. […] Error bars are reporting standard error. Data represent the average of 3 independent experiments.
(In general: A reporter such as luciferase makes a cellular process visible.)

Square brackets hold non-standard residues; d marks the D form. Peptide text beside a SMILES is read from it.

As for `CC[C@@H](C)[C@@H](NC(=O)[C@@H](C)NC(=O)[C@@H](C)NC(=O)[C@H](NC(=O)[C@@H](C)NC(=O)[C@@H](Cc1ccccc1)NC(=O)[C@@H](Cc1c[nH]c2ccccc12)NC(=O)[C@@H](Cc1ccccc1)NC(=O)CNC(=O)[C@H](NC(=O)[C@@H](CCCNC(=N)N)NC(=O)[C@@H](CC(=O)O)NC(=O)[C@H](NC(=O)[C@@H](CCCCN)NC(=O)[C@H](NC(=O)[C@H](NC(=O)[C@H](N)CC(=O)O)[C@H](C)O)[C@H](C)CC)[C@H](C)O)[C@H](C)CC)C(C)C)C(=O)N[C@H](CC(C)C)C(=O)N[C@@H](C(=O)N[C@H](CC(C)C)C(=O)N[C@H](CC(C)C)C(=O)N[C@H](CCCCN)C(=O)N[C@H](CCSC)C(=O)N[C@H](CCSC)C(=O)N[C@H](CCC(=O)O)C(=O)N[C@H](CCC(=O)O)C(=O)N[C@H](Cc1ccccc1)C(=O)N[C@@H](C(=O)NCC(=O)N[C@H](CC(=O)O)C(=O)N[C@H](C)C(=O)N[C@H](Cc1c[nH]cn1)C(=O)O)C(C)C)C(C)C` [(D)-GLP2] (H-[dD][dT][dI][dK][dT][dD][dR][dI]G[dF][dW][dF][dA][dV][dA][dA][dI][dL][dV][dL][dL][dK][dM][dM][dE][dE][dF][dV]G[dD][dA][dH]-OH; N-terminus and C-terminus assumed), the remaining at 6 h, 20 µM in data set [1] was more than 90%. Also, in data set [2], the “degradation by ProtK (in words)” value is “persists after 5 hours”. In data set [3], the “activation of GLP2R, potency and efficacy (in words)” value is “potency and efficacy comparable to (L)-GLP-2”.

As for `CC[C@@H](C)[C@@H](NC(=O)[C@@H](CC(C)C)NC(=O)[C@@H](CC(C)C)NC(=O)[C@@H](CCC(=O)O)NC(=O)[C@@H](CCCCN)NC(=O)[C@@H](CO)NC(=O)[C@H](NC(=O)[C@@H](Cc1c[nH]c2ccccc12)NC(=O)[C@H](N)CO)[C@H](C)O)C(=O)N[C@H](CCC(=O)O)C(=O)N[C@@H](C(=O)N[C@@H](C(=O)N[C@H](CC(N)=O)C(=O)N[C@H](CC(=O)O)C(=O)N[C@H](CC(C)C)C(=O)N[C@H](CCC(N)=O)C(=O)N[C@H](CCCCN)C(=O)N[C@H](CCCNC(=N)N)C(=O)NCC(=O)N[C@H](CS)C(=O)N[C@H](CC(C)C)C(=O)N[C@H](CCCCN)C(=O)N[C@@H](C(=O)N[C@@H](C(=O)N[C@H](CCC(=O)O)C(=O)N[C@H](CCC(=O)O)C(=O)N[C@H](CCSC)C(=O)N[C@H](Cc1c[nH]c2ccccc12)C(=O)N[C@H](CO)C(=O)O)C(C)C)[C@H](C)CC)[C@H](C)CC)[C@H](C)CC` [(D)-RLN] (H-[dS][dW][dT][dS][dK][dE][dL][dL][dI][dE][dI][dI][dN][dD][dL][dQ][dK][dR]G[dC][dL][dK][dI][dV][dE][dE][dM][dW][dS]-OH; N-terminus and C-terminus assumed), the “degradation by ProtK (in words)” value in data set [2] is listed as “persists after 5 hours”. In addition, the remaining at 6 h, 20 µM in data set [2] (isolated enzyme proteinase k, pH 7.4, after 6 hours exposure to ProtK, relative to T0, read-out: peptide still detectable) is approximately 90%. The “activation of RLN receptor, potency and efficacy (in words)” value in data set [4] is “potency and efficacy comparable to (L)-RLN”.
